Experimental data as given in PubChem BioAssay AID1259246 (Broad Institute, 2017).
Results filed as inconclusive are left out. Calls of active or inactive are those of the source.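 How the source made its calls: active means valid dose-response fit whose half-maximal growth-inhibiting concentration is at or below a set limit above the top tested dose; inconclusive means flat fit with effect between 30 and 70%, or poor fit; inactive means half-maximal concentration above a set limit.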

Test: antibacterial activity against Clostridioides difficile – 10-point retest, dose response (AID 1259246)
Conditions: Clostridioides difficile clinical isolate growth, OD600, 24 h; at 60 µM (top of the series)

Compound | activity change, negative = inhibition
COc1ccccc1C#Cc1ccc([C@H]2[C@@H](CO)N(C(=O)C3CCCCC3)[C@H]2C#N)cc1 | 2.35% (inactive)
C/C=C/c1ccc2c(c1)O[C@@H](CN(C)Cc1ccc(C(=O)O)cc1)[C@H](C)CN([C@H](C)CO)S2(=O)=O | 8.2% (inactive)
Cc1noc(C)c1S(=O)(=O)Nc1ccc2c(c1)C(=O)N([C@@H](C)CO)C[C@H](C)[C@@H](CN(C)Cc1ccc3c(c1)OCO3)OCCCC[C@@H](C)O2 | 3.17% (inactive)
C[C@H](CO)N1C[C@H](C)[C@@H](CN(C)S(C)(=O)=O)OCCCC[C@H](C)Oc2ccc(NC(=O)Nc3cccc4ccccc34)cc2C1=O | 9.57% (inactive)
C[C@H]1CN([C@@H](C)CO)C(=O)c2cccc(NC(=O)Nc3ccc(C(F)(F)F)cc3)c2O[C@H]1CN(C)S(=O)(=O)c1ccc(Cl)cc1 | 28.2% (inactive)

Same assay, conditions: Clostridioides difficile clinical isolate growth, OD600, 24 h; at 68 µM (top of the series)

Compound | activity change, negative = inhibition
O=C(C[C@H]1C[C@@H]2c3cc(NS(=O)(=O)c4ccc(F)cc4)ccc3O[C@@H]2[C@@H](CO)O1)NCc1ccc(Cl)cc1 | 8.4% (inactive)

Same assay, conditions: Clostridioides difficile clinical isolate growth, OD600, 24 h; at 110 µM (top of the series)

Compound | activity change, negative = inhibition
O=C(C[C@@H]1CC[C@H]2[C@@H](COC[C@H](O)CN2S(=O)(=O)c2ccc(Cl)cc2)O1)NCc1ccc(Cl)c(Cl)c1 | 55.9% (inactive)

Same assay, conditions: Clostridioides difficile clinical isolate growth, OD600, 24 h; at 120 µM (top of the series)

Compound | activity change, negative = inhibition
CO[C@H]1CN(C)C(=O)c2ccc(NC(=O)c3nc4ccccc4s3)cc2OC[C@H](C)N(Cc2ccncc2)C[C@H]1C | 18.4% (inactive)
O=C(C[C@H]1C[C@@H]2c3cc(NC(=O)C4CCC4)ccc3O[C@@H]2[C@@H](CO)O1)NCc1ccc(Cl)cc1 | -11.8% (inactive)
C[C@H]1CN([C@@H](C)CO)C(=O)c2cccc(NC(=O)Nc3ccc4c(c3)OCO4)c2O[C@@H]1CN(C)Cc1ccc(-c2ccccc2)cc1 | 2.11% (inactive)
O=C(C[C@@H]1C[C@@H]2c3cc(NC(=O)Nc4ccc(F)cc4)ccc3O[C@@H]2[C@@H](CO)O1)NC1CCCCC1 | -8.47% (inactive)
C[C@@H]1CN([C@@H](C)CO)C(=O)Cc2cc(NC(=O)C3CC3)ccc2O[C@@H]1CN(C)Cc1ccc(-c2ccccc2)cc1 | 20.7% (inactive)
Cc1ccc(S(=O)(=O)N[C@@H]2CC[C@H](CCNS(=O)(=O)Cc3ccccc3)O[C@@H]2CO)cc1 | -5.03% (inactive)
C[C@@H]1CN([C@H](C)CO)C(=O)c2cccc(NC(=O)Nc3ccc(C(F)(F)F)cc3)c2O[C@@H]1CN(C)S(=O)(=O)c1ccc(Cl)cc1 | 46.7% (inactive)
C[C@@H]1CCCCO[C@H](CN(C)S(=O)(=O)c2ccc(F)cc2)[C@H](C)CN([C@H](C)CO)C(=O)c2cc(NC(=O)Nc3cccc4ccccc34)ccc2O1 | 23.1% (inactive)
C[C@@H]1CN([C@H](C)CO)S(=O)(=O)c2ccc(/C=C/c3ccccc3)cc2O[C@H]1CN(C)C(=O)c1ccncc1 | 17.1% (inactive)
CO[C@H]1CN(C)C(=O)c2ccc(NC(=O)c3nc4ccccc4s3)cc2OC[C@@H](C)N(Cc2ccncc2)C[C@H]1C | 20.7% (inactive)
C[C@H](CO)N1C[C@H](C)[C@H](CN(C)Cc2cccnc2)Oc2cc(C#CC3CCCCC3)ccc2S1(=O)=O | 24.1% (inactive)
C[C@@H]1CN([C@@H](C)CO)C(=O)Cc2cc(NC(=O)c3ccncc3)ccc2O[C@@H]1CN(C)Cc1ccc(-c2ccccc2)cc1 | 19.7% (inactive)
CNC[C@H]1Oc2ccc(NC(=O)C3CC3)cc2CC(=O)N([C@H](C)CO)C[C@H]1C | -1.55% (inactive)
C[C@@H]1CN([C@H](C)CO)S(=O)(=O)c2ccc(C#CC3CCCC3)cc2O[C@H]1CN(C)Cc1cncnc1 | 38.8% (inactive)
CO[C@@H]1CN(C)C(=O)c2ccc(NC(=O)c3ccc(-c4ccccc4)cc3)cc2OC[C@H](C)NC[C@@H]1C | 17% (inactive)
Cc1ccc(S(=O)(=O)N[C@H]2CC[C@H](CCNS(=O)(=O)Cc3ccccc3)O[C@H]2CO)cc1 | -4.09% (inactive)
C[C@@H]1CN([C@H](C)CO)C(=O)Cc2cc(N(C)C)ccc2O[C@@H]1CN(C)Cc1ccc(-c2ccccc2)cc1 | 22.5% (inactive)
CNC[C@H]1Oc2ccc(N)cc2CC(=O)N([C@@H](C)CO)C[C@H]1C | -3.55% (inactive)
N#C[C@H]1[C@H](c2ccc(C#Cc3ccccc3F)cc2)[C@@H](CO)N1C(=O)C1CCCCC1 | 24.9% (inactive)
CC(C)CC#Cc1ccc2c(c1)O[C@H](CN(C)Cc1cccnc1)[C@@H](C)CN([C@@H](C)CO)S2(=O)=O | 20.5% (inactive)
CNC[C@H]1Oc2ccc(N)cc2CC(=O)N([C@H](C)CO)C[C@H]1C | -8.02% (inactive)
C[C@@H]1CN([C@@H](C)CO)C(=O)Cc2cc(NC(=O)C3CC3)ccc2O[C@@H]1CN(C)Cc1ccc(C(F)(F)F)cc1 | 21.2% (inactive)
O=C(N[C@H]1CC[C@H](CCNS(=O)(=O)c2ccc(Cl)cc2)O[C@H]1CO)c1ccccn1 | -10.3% (inactive)
